Results reported in patent US10717749B2, “Macrocyclic sulfondiimine compounds” (BAYER PHARMA AKTIENGESELLSCHAFT, priority 2015, dated 2020).

Columns and labels:
[1] = tested on: DU145; test: Proliferation assay, crystal violet; type: cell-based; conditions: Homo sapiens, DU-145, 96 h; DU145, 4 days; read-out: Inhibition of DU145 cell proliferation IC50
Experimental: Cultivated tumour cells (HeLa, human cervical tumour cells, ATCC CCL-2; NCI—H460, human non-small cell lung carcinoma cells, ATCC HTB-177; DU 145, hormone-independent human prostate carcinoma cells, ATCC HTB-81; HeLa-MaTu-ADR, multidrug-resistant human cervical carcinoma cells, EPO-GmbH Berlin; Caco-2, human colorectal carcinoma cells, ATCC HTB-37; B16F10, mouse melanoma cells, ATCC CRL-6475) were plated at a density of 3,500 cells/well (DU145), 3,000 cells/well (HeLa-MaTu-ADR), 1,500 cells/well (NCI—H460), 3,000 cells/well (HeLa), 2,000 cells/well (Caco-2), or 1,000 cells/well (B16F10) in a 96-well multititer plate in 150 μL of their respective growth medium supplemented 10% fetal calf serum. After 24 hours, the cells of one plate (zero-point plate) were stained with crystal violet (see below), the test substances were added in various concentrations (0 μM, as well as in the range of 0.0001-10 μM) employing HP Dispenser. The cells were incubated for 4 days in the presence of test substances. Cell proliferation was determined by staining the cells with crystal violet: the cells were fixed by adding 20 μl/measuring point of an 11% glutaric aldehyde solution for 15 minutes at room temperature. After three washing cycles of the fixed cells with water, the plates were dried at room temperature. The cells were stained by adding 100 μl/measuring point of a 0.1% crystal violet solution DU 145, Caco-2, HeLa (pH 4.5) B16F10, NCI—H460, HeLa-MaTu-ADR. After three washing cycles of the stained cells with water, the plates were dried at room temperature. The dye was dissolved by adding 100 μl per measuring point of a 10% acetic acid solution. The extinction was determined by photometry at a wavelength of 595/550/620 nm depending on the intensity of coloration, usually at 595 nm. The change of cell number, in percent, was calculated by normalization of the measured values to the extinction values of the zero-point plate (=0%) and the extinction of the untreated (0 μM) cells (=100%). The IC50 values (inhibitory concentration at 50% of maximal effect) were determined by means of a 4 parameter fit.

[2] = tested on: MOLM-13; test: Proliferation assay, Cell Titer-Glo; type: cell-based; conditions: Homo sapiens; MOLM-13, 72-hour exposure; read-out: Inhibition of MOLM-13 cell proliferation IC50
Experimental: (§1) MOLM-13 human acute myeloid leukemia cells (DSMZ ACC 554) and A2780, human ovarian carcinoma cells (ECACC #93112519) were seeded at a density of 5,000 cells/well (MOLM-13), or 3,000 cells/well (A2780) in a 96-well multititer plate in 150 μL of growth medium supplemented 10% fetal calf serum. After 24 hours, cell viability of one plate (zero-point plate) was determined with the Cell Titer-Glo Luminescent Cell Viability Assay (Promega), whiletest compound was added to the wells of the other plates employing HP Dispenser (final concentrations in the range of 0.0001-10 μM and DMSO controls). Cell viability was assessed after 72-hour exposure with the Cell Titer-Glo Luminescent Cell Viability Assay (Promega). IC50 values (inhibitory concentration at 50% of maximal effect) were determined by means of a 4 parameter fit on measurement data which were normalized to vehicle (DMSO) treated cells (=100%) and measurement readings taken immediately before compound exposure (=0%).

[3] = tested on: A2780; test: Proliferation assay, Cell Titer-Glo; type: cell-based; conditions: Homo sapiens; A2780, 72-hour exposure; read-out: Inhibition of A2780 cell proliferation IC50
Experimental: as §1

[4] = target: T1, CDK9/CycT1 (Homo sapiens, UniProt P50750); test: CDK9/CycT1 high ATP kinase assay (Method 1b, TR-FRET, 2 mM ATP); type: biochemical; conditions: for IC50: Method 1b, 2 mM ATP; for Selectivity high ATP CDK9 over high ATP CDK2: IC50 (high ATP CDK2)/IC50 (high ATP CDK9): Methods 1b and 2b, minimal values
T1 construct: Recombinant full-length His-tagged human CDK9 and CycT1; His; purchased Invitrogen PV4131; host or cells: insect cells
Experimental: 1b. CDK9/CycT1 High ATP Kinase Assay
CDK9/CycT1-inhibitory activity of compounds of the present invention at a high ATP concentration after preincubation of enzyme and test compounds was quantified employing the CDK9/CycT1 TR-FRET assay as described in the following paragraphs.
Recombinant full-length His-tagged human CDK9 and CycT1, expressed in insect cells and purified by Ni-NTA affinity chromatography, were purchase from Invitrogen (Cat. No PV4131). As substrate for the kinase reaction biotinylated peptide biotin-Ttds-YISPLKSPYKISEG (C-terminus in amid form) was used which can be purchased e.g. from the company JERINI peptide technologies (Berlin, Germany). For the assay 50 nl of a 100 fold concentrated solution of the test compound in DMSO was pipetted into a black low volume 384 well microtiter plate (Greiner Bio-One, Frickenhausen, Germany), 2 μl of a solution of CDK9/CycT1 in aqueous assay buffer [50 mM Tris/HCl pH 8.0, 10 mM MgCl2, 1.0 mM dithiothreitol, 0.1 mM sodium ortho-vanadate, 0.010% (v/v) Nonidet-P40 (Sigma)] were added and the mixture was incubated for 15 min at 22° C. to allow pre-binding of the test compounds to the enzyme before the start of the kinase reaction. Then the kinase reaction was started by the addition of 3 μl of a solution of adenosine-tri-phosphate (ATP, 3.3 mM=> final conec. in the 5 μl assay volume is 2 mM) and substrate (1.67 μM=> final conc. in the 5 μl assay volume is 1 μM) in assay buffer and the resulting mixture was incubated for a reaction time of 25 min at 22° C. The concentration of CDK9/CycT1 was adjusted depending of the activity of the enzyme lot and was chosen appropriate to have the assay in the linear range, typical concentrations were in the range of 0.5 μg/mL. The reaction was stopped by the addition of 5 μl of a solution of TR-FRET detection reagents (0.2 μM streptavidine-XL665 [Cisbio Bioassays, Codolet, France] and 1 nM anti-RB(pSer807/pSer811)-antibody from BD Pharmingen [#558389] and 1.2 nM LANCE EU-W1024 labeled anti-mouse IgG antibody [Perkin-Elmer, product no. AD0077]) in an aqueous EDTA-solution (100 mM EDTA, 0.2% (w/v) bovine serum albumin in 100 mM HEPES pH 7.5).
The resulting mixture was incubated 1 h at 22° C. to allow the formation of complex between the phosphorylated biotinylated peptide and the detection reagents. Subsequently the amount of phosphorylated substrate was evaluated by measurement of the resonance energy transfer from the Eu-chelate to the streptavidine-XL. Therefore, the fluorescence emissions at 620 nm and 665 nm after excitation at 350 nm was measured in a HTRF reader, e.g. a Rubystar (BMG Labtechnologies, Offenburg, Germany) or a Viewlux (Perkin-Elmer). The ratio of the emissions at 665 nm and at […] was taken as the measure for the amount of phosphorylated substrate. The data were normalised (enzyme reaction without inhibitor=0% inhibition, all other assay components but no enzyme=100% inhibition).

T1 sequence (P50750 whole entry): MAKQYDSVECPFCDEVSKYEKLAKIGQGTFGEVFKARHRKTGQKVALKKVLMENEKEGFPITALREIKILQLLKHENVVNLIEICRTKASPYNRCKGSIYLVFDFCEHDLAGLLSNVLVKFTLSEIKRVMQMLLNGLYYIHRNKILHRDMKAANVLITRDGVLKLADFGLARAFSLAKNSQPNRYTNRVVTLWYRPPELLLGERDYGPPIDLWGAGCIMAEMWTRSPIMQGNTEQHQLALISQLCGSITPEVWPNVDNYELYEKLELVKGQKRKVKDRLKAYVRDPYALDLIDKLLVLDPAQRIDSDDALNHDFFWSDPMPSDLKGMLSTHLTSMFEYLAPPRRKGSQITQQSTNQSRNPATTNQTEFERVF
T1 sequence (O60563 whole entry partner): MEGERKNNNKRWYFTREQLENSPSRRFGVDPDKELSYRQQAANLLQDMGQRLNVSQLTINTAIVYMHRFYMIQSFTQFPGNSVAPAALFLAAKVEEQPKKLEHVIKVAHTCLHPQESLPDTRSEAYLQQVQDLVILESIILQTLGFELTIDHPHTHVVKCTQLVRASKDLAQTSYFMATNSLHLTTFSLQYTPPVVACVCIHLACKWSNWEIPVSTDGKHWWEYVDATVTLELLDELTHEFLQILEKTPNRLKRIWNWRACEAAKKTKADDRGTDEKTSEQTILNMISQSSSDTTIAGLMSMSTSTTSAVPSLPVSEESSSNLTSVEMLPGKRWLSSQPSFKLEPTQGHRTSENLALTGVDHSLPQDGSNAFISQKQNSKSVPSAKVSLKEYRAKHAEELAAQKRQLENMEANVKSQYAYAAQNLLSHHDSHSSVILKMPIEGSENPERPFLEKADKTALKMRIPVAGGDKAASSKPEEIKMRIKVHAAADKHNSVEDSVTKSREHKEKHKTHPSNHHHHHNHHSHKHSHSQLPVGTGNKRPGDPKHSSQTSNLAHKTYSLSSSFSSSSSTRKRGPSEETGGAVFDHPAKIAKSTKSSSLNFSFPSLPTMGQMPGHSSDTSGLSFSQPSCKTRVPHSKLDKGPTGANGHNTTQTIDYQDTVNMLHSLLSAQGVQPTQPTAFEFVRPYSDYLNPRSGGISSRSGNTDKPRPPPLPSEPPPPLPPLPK

Structure (SMILES)	IC50 [1]	IC50 [2]	IC50 [3]	IC50 [4]	Selectivity high ATP CDK9 over high ATP CDK2: IC50 (high ATP CDK2)/IC50 (high ATP CDK9) [4]
CS(=N)(Cc1cc2nc(c1)OCCCOc1cc(F)ccc1-c1cc(ncc1F)N2)=NCCCO (racemic) [Example 2, (rac)-3-(2-{[15,19-difluoro-3,4-dihydro-2H,11H-10,6-(azeno)-12,16-(metheno)-1,5,11,13-benzodioxadiazacyclooctadecin-8-yl]methyl}-2-methyl-2λ^6-diazathia-1,2-dien-1-yl)propan-1-ol]	29.5 nM	5.3 nM	5.4 nM	2 nM	123
CS(=N)(Cc1cc2cc(c1)OCCCCOc1cc(F)ccc1-c1nc(ncc1F)N2)=NC1CC1 (racemic) [Example 9, (rac)-9-[(N-cyclopropyl-S-methylsulfonodiimidoyl)methyl]-16,20-difluoro-2,3,4,5-tetrahydro-12H-13,17-(azeno)-11,7-(metheno)-1,6,12,14-benzodioxadiazacyclononadecine]	118 nM	22.2 nM	31.3 nM	2.3 nM	433
CN=S(C)(=N)Cc1cc2cc(c1)OCCCCOc1cc(F)ccc1-c1nc(ncc1F)N2 (racemic) [Example 10, (rac)-9-[(N,S-dimethylsulfonodiimidoyl)methyl]-16,20-difluoro-2,3,4,5-tetrahydro-12H-13,17-(azeno)-11,7-(metheno)-1,6,12,14-benzodioxadiazacyclononadecine]			29 nM	3.4 nM	485
CS(=N)(=N)Cc1cc2cc(c1)OCCCCOc1cc(F)ccc1-c1nc(ncc1F)N2 [Example 5, 16,20-difluoro-9-[(S-methylsulfonodiimidoyl)methyl]-2,3,4,5-tetrahydro-12H-13,17-(azeno)-11,7-(metheno)-1,6,12,14-benzodioxadiazacyclononadecine]	36.2 nM	8.2 nM	11.7 nM	2.1 nM	590
CS(=N)(=N)Cc1cc2cc(c1)OCCCCOc1c(ccc(F)c1F)-c1nc(ncc1F)N2 [Example 6, 16,20,21-trifluoro-9-[(S-methylsulfonodiimidoyl)methyl]-2,3,4,5-tetrahydro-12H-13,17-(azeno)-11,7-(metheno)-1,6,12,14-benzodioxadiazacyclononadecine]	360 nM	113 nM	123 nM	5.9 nM	2118
CS(=N)(=N)Cc1cc2cc(c1)OCCCCOc1c(F)cccc1-c1nc(ncc1F)N2 [Example 7, 16,21-difluoro-9-[(S-methylsulfonodiimidoyl)methyl]-2,3,4,5-tetrahydro-12H-13,17-(azeno)-11,7-(metheno)-1,6,12,14-benzodioxadiazacyclononadecine]	396 nM	126 nM	125 nM		2132

Next, values leading:

IC50 [1]	IC50 [2]	IC50 [3]	IC50 [4]	Selectivity high ATP CDK9 over high ATP CDK2: IC50 (high ATP CDK2)/IC50 (high ATP CDK9) [4]	Structure (SMILES)
	2 nM	2.6 nM	1.7 nM	36.7	CS(=N)(Cc1cc2nc(c1)OCCCOc1cc(F)ccc1-c1cc(ncc1F)N2)=NC#N (racemic) [Example 3, (rac)-[{[15,19-difluoro-3,4-dihydro-2H,11H-10,6-(azeno)-12,16-(metheno)-1,5,11,13-benzodioxadiazacyclooctadecin-8-yl]methyl}(imino)methyl-λ^6-sulfanylidene]cyanamide]
	4.7 nM	11.7 nM	3.7 nM	168	CN=S(C)(=N)Cc1cc2nc(c1)OCCCOc1cc(F)ccc1-c1cc(ncc1F)N2 (racemic) [Example 4, (rac)-8-[(N,S-dimethylsulfonodiimidoyl)methyl]-15,19-difluoro-3,4-dihydro-2H,11H-10,6-(azeno)-12,16-(metheno)-1,5,11,13-benzodioxadiazacyclooctadecine]
9.1 nM	2.8 nM	4 nM	2 nM	70	CS(=N)(=N)Cc1cc2nc(c1)OCCCOc1cc(F)ccc1-c1cc(ncc1F)N2 [Example 1, 15,19-difluoro-8-[(S-methylsulfonodiimidoyl)methyl]-3,4-dihydro-2H,11H-10,6-(azeno)-12,16-(metheno)-1,5,11,13-benzodioxadiazacyclooctadecine]
11.2 nM	4.2 nM	18.1 nM	1.5 nM	252	CS(=N)(=N)Cc1cc2nc(c1C#N)OCCCOc1cc(F)ccc1-c1cc(ncc1F)N2 [Example 8, 15,19-difluoro-8-[(S-methylsulfonodiimidoyl)methyl]-3,4-dihydro-2H,11H-10,6-(azeno)-12,16-(metheno)-1,5,11,13-benzodioxadiazacyclooctadecine-7-carbonitrile]
